Data published in patent US11607421B2, “Ethanolamine-based lipid biosynthetic compounds, method of making and use thereof” (Metanoi Therapeutics, Inc., priority 2016, dated 2023).
Where two headings read alike, the source gives them in different places.

Experiments:
FR1 = FR1 (Homo sapiens, UniProt P15328); settings: read-out: affinity; cited from earlier work
FR2 = FR2 (Homo sapiens, UniProt P14207); settings: read-out: affinity; cited from earlier work
[1] = tested on: BT-549 breast cancer cells; settings: cells with amplified centrosomes; cited from earlier work
KIFC1 = KIFC1 (Homo sapiens, UniProt Q9BW19); settings: ATP-competitive, MT-noncompetitive; cited from earlier work
CYP3A4 = CYP3A4 (Homo sapiens, UniProt P08684); experiment: CYP inhibition in human liver microsomes
CYP2C9 = CYP2C9 (Homo sapiens, UniProt P11712); experiment: CYP inhibition in human liver microsomes
CYP2E1 = CYP2E1 (Homo sapiens, UniProt P05181); experiment: CYP inhibition in human liver microsomes
[2] = Stability in simulated gastric fluid (SGF); format: in vitro ADME; settings: 10 μM, SGF pH 1.2, over 1 h
Procedure: (§1) Samples (100 μl) were drawn at 0, 15, 30 and 60 min from SGF reaction-vials and at 0, 30, 60 and 120 min from SIF reaction-vials, quenched with acetonitrile, vortex-mixed, and centrifuged before supernatant analysis by LC-MS/MS analysis. […] For PK studies, a sparse sampling design with 3 mice per time point was used to collect blood samples at 5, 10, 15, 30 min and 1, 2, 3, 4, 5 and 6 h in K2EDTA-coated tubes. The pharmacokinetic parameters (AUClast, Cmax, CL and Vss) were calculated using non-compartmental analysis tool of Phoenix WinNonlin software (version 6.3).
(§2) Given the extreme pH and various digestive enzymes, the GI tract presents a harsh environment to any ingested xenobiotic. Thus, many potential drug candidates are degraded in the GI tract, explaining their decreased bioavailability or inability to reach the target at effective concentrations. Simulated gastric fluid (SGF; pH 1.2) and simulated intestinal fluid (SIF; pH 6.8) closely mimic the GI tract environment and are amenable in vitro systems to evaluate degradation of a compound in GI tract (US Pharmacopoia).
(§3) Simulated gastric fluid was prepared as per U.S. Pharmacopeia (USP) methods. Sodium chloride (2 g) and pepsin (3.2 g, from porcine stomach mucosa) were dissolved in 7.0 ml hydrochloric acid and Milli-Q water to make up the volume to 1000 ml and the pH was adjusted to 1.2. […]

PC-3 cells [3] = experiment: Clonogenic cell survival (colony) assay; format: cell-based, human; settings: 2 mg/ml, 48 h treatment, colonies after 10 days
Procedure: (§4) Next, a clonogenic cell survival assay was performed to assess the reproductive capacity of cells upon drug removal.
(§5) After 48 h, drug containing medium was replaced by medium containing MTT (tetrazolium bromide) at a concentration of 0.5 mg/ml. The yellow tetrazolium salt is reduced to insoluble purple formazan by viable cells. After 4 h of incubation in dark, formazan crystals produced by viable cells were dissolved by 200 μl DMSO and the amount of formazan crystals formed was quantified by recording the absorbance at 570 nm using multi-well plate reader. […] After 10 days, colonies were fixed with 4% formaldehyde, stained with crystal violet and counted.

PC-3 cells [4] = experiment: Intracellular levels of Etn and PhosE by LC-MS/MS; format: cell-based, human; settings: 1 mg/ml, 48 h, pH 7.4
CYP2C8 = CYP2C8 (Homo sapiens, UniProt P10632); experiment: CYP inhibition in human liver microsomes
CYP2B6 = CYP2B6 (Homo sapiens, UniProt P20813); experiment: CYP inhibition in human liver microsomes
CYP1A2 = CYP1A2 (Homo sapiens, UniProt P05177); experiment: CYP inhibition in human liver microsomes
[5] = Blood plasma concentration ratio assay; format: in vitro ADME, mice; settings: whole blood; mouse blood, 37° C.; read-out: Blood to plasma ratio (BPR)
Procedure: Values and error bars shown in the figure represent mean and SE, respectively.
100 μl and 300 μl aliquots were collected at time points 0, 15, 30 and 60 min. 100 μl water was added to each of the 100 μl aliquots followed by vortexing, centrifugation at 8000 g for 10 min, and collection of the supernatants for bioanalysis. The 300 μL aliquots were centrifuged at 8000 g for 10 min to separate the plasma, followed by collection of the supernatants for bioanalysis.

CYP2A6 = CYP2A6 (Homo sapiens, UniProt P11509); experiment: CYP inhibition in human liver microsomes
PC-3 cells [6] = experiment: MTT cell proliferation assay; format: cell-based, human; settings: MTT, 48 h, pH 7.4
Procedure: as §4, §5

CYP2D6 = CYP2D6 (Homo sapiens, UniProt P10635); experiment: CYP inhibition in human liver microsomes
[7] = Stability in simulated intestinal fluid (SIF); format: in vitro ADME; settings: 10 μM, SIF pH 6.8, after 2 h
Procedure: as §1, §2, §3

CYP2C19 = CYP2C19 (Homo sapiens, UniProt P33261); experiment: CYP inhibition in human liver microsomes
[8] = Pharmacokinetic studies, single oral and intravenous dose; format: in vivo, BALB/c mice; settings: male, BALB/c, mouse, plasma, analyte PhosE; for Cmax: read-out: Cmax/C0
Procedure: as §1
Nine animals per group were used for PK studies. A sparse sampling design was used to collect blood samples from animals at 5 min, 10 min, 15 min, 30 min, 1, 2, 3, 4, 5, and 6 h in K2EDTA coated tubes. Plasma was collected from blood by centrifugation of samples at 8000 g for 10 min. Plasma samples were stored below −60° C. until further analysis.
PK parameters were calculated from the concentration-time data using the non-compartmental analysis tool of Phoenix WinNolin® software (version 6.3, Pharsight, St Louis, Mo.). The area under the concentration time curve (AUClast) was calculated by the linear trapezoidal rule. Following oral administration, peak concentration (Cmax) and time for the peak concentration (Tmax) were the observed values. The clearance (CL) and volume of distribution (Vss) were estimated following IV dose administration. The elimination rate constant value (k) was obtained by linear regression of the log-linear terminal phase of the concentration-time profile using at least three declining concentrations in terminal phase with a correlation coefficient of >0.8. The terminal half-life value (T1/2) was calculated using the equation ln 2/k. Oral bioavailability was calculated by taking the ratio of dose normalized AUClast following oral administration to IV administration.

Sequence of CYP3A4 (P08684 whole entry): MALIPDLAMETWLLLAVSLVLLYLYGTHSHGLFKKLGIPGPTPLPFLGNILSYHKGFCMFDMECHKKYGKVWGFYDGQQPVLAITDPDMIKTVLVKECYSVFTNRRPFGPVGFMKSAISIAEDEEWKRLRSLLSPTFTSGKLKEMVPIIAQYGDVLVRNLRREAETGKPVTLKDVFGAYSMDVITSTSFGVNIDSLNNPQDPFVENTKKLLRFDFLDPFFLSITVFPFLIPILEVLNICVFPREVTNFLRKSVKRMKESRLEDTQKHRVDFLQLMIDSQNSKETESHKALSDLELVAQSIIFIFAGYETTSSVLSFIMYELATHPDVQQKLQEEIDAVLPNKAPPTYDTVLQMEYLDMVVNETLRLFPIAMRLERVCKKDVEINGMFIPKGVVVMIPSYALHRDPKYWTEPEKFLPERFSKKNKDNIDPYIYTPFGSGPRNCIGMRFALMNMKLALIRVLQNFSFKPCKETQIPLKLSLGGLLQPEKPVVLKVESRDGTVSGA
Sequence of FR1 (P15328 25-234): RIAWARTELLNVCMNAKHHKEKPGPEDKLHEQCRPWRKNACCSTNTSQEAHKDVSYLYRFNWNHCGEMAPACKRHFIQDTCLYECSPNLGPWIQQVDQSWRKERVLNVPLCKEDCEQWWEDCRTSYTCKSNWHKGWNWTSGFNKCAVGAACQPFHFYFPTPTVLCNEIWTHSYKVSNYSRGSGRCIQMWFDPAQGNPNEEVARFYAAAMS
Sequence of FR2 (P14207 17-230): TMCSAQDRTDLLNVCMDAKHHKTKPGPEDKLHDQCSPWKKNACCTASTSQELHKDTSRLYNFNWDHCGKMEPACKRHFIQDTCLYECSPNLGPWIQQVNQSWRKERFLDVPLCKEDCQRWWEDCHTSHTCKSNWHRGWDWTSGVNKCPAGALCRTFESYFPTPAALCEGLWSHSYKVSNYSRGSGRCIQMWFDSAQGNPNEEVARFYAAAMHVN
Sequence of CYP1A2 (P05177 whole entry): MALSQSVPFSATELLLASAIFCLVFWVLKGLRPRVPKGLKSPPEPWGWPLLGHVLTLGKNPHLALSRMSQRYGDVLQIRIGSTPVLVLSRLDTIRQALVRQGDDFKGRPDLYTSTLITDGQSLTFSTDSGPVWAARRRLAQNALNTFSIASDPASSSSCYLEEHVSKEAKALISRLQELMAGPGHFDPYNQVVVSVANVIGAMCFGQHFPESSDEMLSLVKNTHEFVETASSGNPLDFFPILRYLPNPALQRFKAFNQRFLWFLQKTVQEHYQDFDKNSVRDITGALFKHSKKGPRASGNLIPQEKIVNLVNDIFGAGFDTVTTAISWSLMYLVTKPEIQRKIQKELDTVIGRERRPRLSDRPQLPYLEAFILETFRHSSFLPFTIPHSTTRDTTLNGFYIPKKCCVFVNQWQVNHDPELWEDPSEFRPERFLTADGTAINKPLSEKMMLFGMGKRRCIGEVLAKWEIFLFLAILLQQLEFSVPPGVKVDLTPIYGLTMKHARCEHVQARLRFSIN
Sequence of CYP2C9 (P11712 whole entry): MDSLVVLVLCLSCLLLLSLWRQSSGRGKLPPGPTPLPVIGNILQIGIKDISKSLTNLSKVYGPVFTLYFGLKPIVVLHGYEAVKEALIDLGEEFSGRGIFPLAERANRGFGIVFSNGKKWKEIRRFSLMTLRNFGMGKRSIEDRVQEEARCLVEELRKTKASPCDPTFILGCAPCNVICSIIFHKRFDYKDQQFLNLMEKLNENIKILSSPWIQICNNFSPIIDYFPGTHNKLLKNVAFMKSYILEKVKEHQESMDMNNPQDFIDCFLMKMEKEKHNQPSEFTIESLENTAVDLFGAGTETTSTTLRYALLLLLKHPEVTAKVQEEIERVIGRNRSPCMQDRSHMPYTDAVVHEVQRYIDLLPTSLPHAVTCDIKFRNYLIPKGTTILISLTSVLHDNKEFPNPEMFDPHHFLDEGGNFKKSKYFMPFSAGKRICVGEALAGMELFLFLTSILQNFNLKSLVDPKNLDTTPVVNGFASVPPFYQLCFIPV
Sequence of CYP2C8 (P10632 whole entry): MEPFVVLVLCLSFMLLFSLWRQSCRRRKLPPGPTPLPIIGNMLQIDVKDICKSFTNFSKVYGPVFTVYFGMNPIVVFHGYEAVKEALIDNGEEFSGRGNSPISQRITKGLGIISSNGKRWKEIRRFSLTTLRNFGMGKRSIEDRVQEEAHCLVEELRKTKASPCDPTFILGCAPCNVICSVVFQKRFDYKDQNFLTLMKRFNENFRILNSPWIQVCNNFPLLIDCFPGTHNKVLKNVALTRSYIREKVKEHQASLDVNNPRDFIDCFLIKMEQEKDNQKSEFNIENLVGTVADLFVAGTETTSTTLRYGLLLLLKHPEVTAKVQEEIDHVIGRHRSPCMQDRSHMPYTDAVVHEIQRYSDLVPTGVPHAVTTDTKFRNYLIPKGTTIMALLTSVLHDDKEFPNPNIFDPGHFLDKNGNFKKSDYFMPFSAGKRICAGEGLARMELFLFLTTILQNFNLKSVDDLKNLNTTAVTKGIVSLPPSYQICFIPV
Sequence of CYP2D6 (P10635 whole entry): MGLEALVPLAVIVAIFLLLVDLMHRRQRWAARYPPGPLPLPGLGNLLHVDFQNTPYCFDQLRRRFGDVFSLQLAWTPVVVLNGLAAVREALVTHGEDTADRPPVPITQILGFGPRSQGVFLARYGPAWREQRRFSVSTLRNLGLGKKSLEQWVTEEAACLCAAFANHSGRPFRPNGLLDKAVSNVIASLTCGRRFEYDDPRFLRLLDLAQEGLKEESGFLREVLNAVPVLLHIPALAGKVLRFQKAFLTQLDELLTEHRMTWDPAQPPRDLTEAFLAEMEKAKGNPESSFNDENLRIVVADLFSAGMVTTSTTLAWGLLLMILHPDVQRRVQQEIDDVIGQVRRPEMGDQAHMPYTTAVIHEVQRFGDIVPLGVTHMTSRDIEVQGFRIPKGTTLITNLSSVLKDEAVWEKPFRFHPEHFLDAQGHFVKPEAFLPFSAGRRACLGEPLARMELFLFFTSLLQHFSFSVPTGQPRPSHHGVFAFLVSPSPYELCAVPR
Sequence of CYP2A6 (P11509 whole entry): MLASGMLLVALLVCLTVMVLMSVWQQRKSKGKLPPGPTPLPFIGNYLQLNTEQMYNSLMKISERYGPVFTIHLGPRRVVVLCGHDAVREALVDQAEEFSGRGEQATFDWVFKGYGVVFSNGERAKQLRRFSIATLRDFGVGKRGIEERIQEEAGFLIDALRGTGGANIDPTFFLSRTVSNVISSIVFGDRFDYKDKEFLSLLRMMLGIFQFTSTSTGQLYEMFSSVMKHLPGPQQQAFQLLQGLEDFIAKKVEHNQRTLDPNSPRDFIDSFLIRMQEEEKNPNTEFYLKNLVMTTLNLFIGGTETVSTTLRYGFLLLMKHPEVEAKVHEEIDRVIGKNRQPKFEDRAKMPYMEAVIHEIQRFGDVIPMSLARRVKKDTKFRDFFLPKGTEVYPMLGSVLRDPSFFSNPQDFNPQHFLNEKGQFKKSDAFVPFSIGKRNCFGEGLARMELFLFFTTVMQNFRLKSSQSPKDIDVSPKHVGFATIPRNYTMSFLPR
Sequence of CYP2B6 (P20813 whole entry): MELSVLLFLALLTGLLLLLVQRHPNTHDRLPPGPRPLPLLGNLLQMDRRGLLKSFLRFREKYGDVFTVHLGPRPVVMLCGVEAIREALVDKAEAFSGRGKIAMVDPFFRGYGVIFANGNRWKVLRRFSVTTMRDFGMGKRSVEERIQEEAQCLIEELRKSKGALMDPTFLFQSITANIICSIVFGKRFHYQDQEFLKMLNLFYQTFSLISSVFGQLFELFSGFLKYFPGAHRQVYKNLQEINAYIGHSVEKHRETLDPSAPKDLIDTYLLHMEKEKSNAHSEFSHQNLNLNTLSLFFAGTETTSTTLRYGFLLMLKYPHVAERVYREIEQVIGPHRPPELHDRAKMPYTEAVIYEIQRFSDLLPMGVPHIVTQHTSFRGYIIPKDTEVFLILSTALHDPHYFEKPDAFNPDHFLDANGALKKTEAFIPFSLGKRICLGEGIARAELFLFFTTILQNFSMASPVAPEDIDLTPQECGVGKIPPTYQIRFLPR
Sequence of CYP2E1 (P05181 whole entry): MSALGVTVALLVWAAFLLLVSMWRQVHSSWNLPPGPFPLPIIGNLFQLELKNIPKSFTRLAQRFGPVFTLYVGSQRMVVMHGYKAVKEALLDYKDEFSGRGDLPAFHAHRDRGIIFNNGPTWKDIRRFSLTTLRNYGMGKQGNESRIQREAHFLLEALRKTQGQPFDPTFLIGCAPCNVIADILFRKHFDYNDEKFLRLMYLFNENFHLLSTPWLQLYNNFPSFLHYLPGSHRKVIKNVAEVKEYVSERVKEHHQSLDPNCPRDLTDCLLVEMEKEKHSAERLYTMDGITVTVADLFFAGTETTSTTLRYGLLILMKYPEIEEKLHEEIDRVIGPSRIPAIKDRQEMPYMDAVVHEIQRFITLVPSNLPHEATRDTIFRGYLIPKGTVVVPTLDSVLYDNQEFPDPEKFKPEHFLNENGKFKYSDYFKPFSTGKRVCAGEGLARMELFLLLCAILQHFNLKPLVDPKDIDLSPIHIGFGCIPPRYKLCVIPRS
Sequence of CYP2C19 (P33261 whole entry): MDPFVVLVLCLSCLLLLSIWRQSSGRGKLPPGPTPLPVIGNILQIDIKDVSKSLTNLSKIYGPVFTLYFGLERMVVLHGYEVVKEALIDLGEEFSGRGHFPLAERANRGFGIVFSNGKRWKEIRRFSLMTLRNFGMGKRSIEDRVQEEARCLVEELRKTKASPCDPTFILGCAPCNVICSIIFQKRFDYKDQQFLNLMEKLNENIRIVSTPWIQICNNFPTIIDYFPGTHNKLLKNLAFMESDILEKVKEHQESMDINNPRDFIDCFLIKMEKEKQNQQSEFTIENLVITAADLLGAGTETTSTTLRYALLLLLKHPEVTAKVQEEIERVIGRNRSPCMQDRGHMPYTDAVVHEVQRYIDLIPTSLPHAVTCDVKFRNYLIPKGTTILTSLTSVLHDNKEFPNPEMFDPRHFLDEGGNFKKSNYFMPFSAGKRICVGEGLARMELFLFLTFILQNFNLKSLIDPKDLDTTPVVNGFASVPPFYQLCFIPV

CN1c2c(nc(N)[nH]c2=O)NC[C@@H]1CNc1ccc(C(=O)N[C@@H](CCC(=O)O)C(=O)O)cc1 [6S 5-methyltetrahydrofolate]
Kd (FR1): 0.055 µM
Kd (FR2): 0.001 µM

CCCc1cc(C(=O)N[C@H](Cc2ccc(-c3cccc(OC(F)(F)F)c3)nc2)C(=O)N[C@@H]2CCNC2)sc1C [AZ82]
centrosome declustering [1]: causes centrosome declustering
Ki (KIFC1): 0.043 µM

NCCOP(=O)(O)O [PhosE, phosphoethanolamine]
IC50 (CYP3A4): > 100 µM
IC50 (CYP3A4; 3A4-mida: CYP3A4 substrate midazolam, human liver microsomes): > 100 µM
IC50 (CYP3A4; 3A4-testo: CYP3A4 substrate testosterone, human liver microsomes): > 100 µM
IC50 (CYP2C9): > 100 µM
IC50 (CYP2E1): > 100 µM
stability in SGF [2]: stable
decrease in colony numbers compared to control cells (PC-3 cells [3]): ineffective in decreasing colony numbers
increase in intracellular PhosE levels compared to control cells (PC-3 cells [4]): ~15 fold
IC50 (CYP2C8): > 100 µM
IC50 (CYP2B6): > 100 µM
IC50 (CYP1A2): > 100 µM
blood plasma ratio at 50 μM [5]: < 1.5
IC50 (CYP2A6): > 100 µM
inhibition of PC-3 cell proliferation (PC-3 cells [6]): only showed limited inhibition of PC-3 cell proliferation up to 0.5 mg/ml
IC50 (CYP2D6): > 100 µM
decrease in concentration in SIF [7]: ~35%
IC50 (CYP2C19): > 100 µM
half-life ([8]; iv, 3 mg/kg, PhosE 3 mg/kg iv): < 1 h
AUC(0-t) ([8]; PhosE 3 mg/kg iv): 490 ng·h/mL
MRT last ([8]; PhosE 3 mg/kg iv): 0.79 h
clearance ([8]; PhosE 3 mg/kg iv): 102 mL/min/kg
Cmax ([8]; PhosE 3 mg/kg iv): 1250 ng/mL
Vd ([8]; PhosE 3 mg/kg iv, read-out: Vss): 4.82 L/kg
bioavailability ([8]; PhosE 60 mg/kg po vs 3 mg/kg iv, read-out: F (oral bioavailability)): 19%
AUC(0-t) ([8]; PhosE 60 mg/kg po): 1890 ng·h/mL
Tmax ([8]; PhosE 60 mg/kg po): 1 h
Cmax ([8]; PhosE 60 mg/kg po): 1140 ng/mL

Nc1nc2c(c(=O)[nH]1)N(C=O)C(CNc1ccc(C(=O)N[C@@H](CCC(=O)O)C(=O)O)cc1)CN2 (stereo partly drawn) [leucovorin, 6S 5-formyltetrahydrofolate]
Kd (FR1): 0.8 µM
Kd (FR2): 0.007 µM
